Data on two compounds can be found in PMC10584882 (Communications Biology, 2023).

Several values for one entry are separate records, joined by “and”; a condition that tells them apart may be missing. Equal entries are not always repeated.

For one assay, the target named is T1, human CatK (Homo sapiens, UniProt P43235).
T1 construct: made in house
T1 sequence (P43235 115-329): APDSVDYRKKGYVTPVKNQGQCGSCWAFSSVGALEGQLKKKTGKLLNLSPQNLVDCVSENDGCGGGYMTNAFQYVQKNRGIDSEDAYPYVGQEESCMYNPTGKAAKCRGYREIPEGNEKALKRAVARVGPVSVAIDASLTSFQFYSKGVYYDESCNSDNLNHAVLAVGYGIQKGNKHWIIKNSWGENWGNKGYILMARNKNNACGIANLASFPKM
In words: Cathepsin inhibition test, CatK. Format: biochemical. Conditions: Fig. S3 panel a, single replicates.

In a further assay the target is T2, human CatV (Homo sapiens, UniProt O60911).
T2 construct: made in house
In words: Cathepsin inhibition test, CatV. It counts as biochemical. The settings on record: Fig. S3 panel c, single replicates.

The next assay has as its target T3, CatL (Homo sapiens, UniProt P07711).
T3 construct: made in house
Kind of assay: Cathepsin inhibition test, CatL. It counts as biochemical. The settings on record: for Residual activity (Vi/V0): Fig. S3 panel b, single replicates.

The subject of the next assay is SARS-CoV-2-GFP. In words: microbe, parasite or virus in culture. It counts as cell-based. Conditions: mean with standard error, read-out: VERO E6 EC50.
The mark [1] stands for this setting: inhibitor 0.105 nM, 0.000105 µM.
Where [2] appears, read: inhibitor 0.189 nM, 0.000189 µM.
Setting [3] is: inhibitor 0.612 nM, 0.000612 µM.
Setting [4] is: inhibitor 1.103 nM, 0.001103 µM.
The mark [5] stands for this setting: inhibitor 1.985 nM, 0.001985 µM.
Setting [6] is: inhibitor 3.572 nM, 0.003572 µM.
The mark [7] stands for this setting: inhibitor 11.547 nM, 0.011547 µM.
The mark [8] stands for this setting: inhibitor 20.833 nM, 0.020833 µM.

T3 sequence (P07711 114-333): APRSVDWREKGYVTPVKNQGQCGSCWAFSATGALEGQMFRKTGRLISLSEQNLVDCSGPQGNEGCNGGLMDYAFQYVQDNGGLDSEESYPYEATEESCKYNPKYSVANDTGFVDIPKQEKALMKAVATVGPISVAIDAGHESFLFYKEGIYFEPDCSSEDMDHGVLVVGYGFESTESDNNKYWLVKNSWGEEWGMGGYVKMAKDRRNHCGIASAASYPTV
T2 sequence (O60911 114-334): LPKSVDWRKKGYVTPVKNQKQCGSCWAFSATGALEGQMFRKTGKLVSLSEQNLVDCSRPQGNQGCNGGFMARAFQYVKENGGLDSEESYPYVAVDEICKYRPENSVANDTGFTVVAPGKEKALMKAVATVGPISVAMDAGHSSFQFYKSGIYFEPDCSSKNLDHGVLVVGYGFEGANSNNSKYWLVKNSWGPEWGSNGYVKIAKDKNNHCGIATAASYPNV

For the compound `CC(C)C[C@H](NC(=O)OCc1ccccc1)C(=O)N[C@@H](C[C@@H]1CCNC1=O)C(O)S(=O)(=O)[O-].[Na+]` (stereo partly drawn) [GC376], the “Residual activity (Vi/V0)” value at human CatK (inhibitor 0.010 nM, 10 pM) is 1 and 1.168 and 0.9786 and 1.164 and 0.971; on human CatK (inhibitor 0.018 nM, 18 pM), 1.045 and 0.9537 and 0.8787 and 1.068 and 0.891; on human CatK (inhibitor 0.032 nM, 32 pM), 1.008 and 0.9541 and 1.052 and 1.097 and 0.9731; on human CatK (inhibitor 0.058 nM, 58 pM) it was 0.9618 and 1.104 and 1; on human CatK (setting [1]), 0.7126 and 0.7756 and 0.8857 and 0.9962 and 0.9154; at human CatK (setting [2]), 0.687 and 0.7701 and 0.8381 and 0.9358 and 0.9354. Also, the “Residual activity (Vi/V0)” value at human CatK (inhibitor 0.340 nM, 0.00034 µM) was 0.5857 and 0.5656 and 0.9002 and 0.8293 and 0.7129; at human CatK (setting [3]) it was 0.5454 and 0.3889 and 0.8833 and 0.6839 and 0.5394; at human CatK (setting [4]) it was 0.3854 and 0.2819 and 0.6231 and 0.4604 and 0.4262; at human CatK (setting [5]), 0.2545 and 0.4374 and 0.3426 and 0.223; at human CatK (setting [6]), 0.1189 and 0.1895 and 0.3494 and 0.2326 and 0.2097; on human CatK (inhibitor 6.430 nM, 0.00643 µM) it was 0.1182 and 0.1529 (2×) and 0.2134 and 0.1788. The “Residual activity (Vi/V0)” value on human CatK (setting [7]) is 0.09726 and 0.09205 and 0.1617 and 0.0793 and 0.08002; at human CatK (setting [8]), -0.01061 and 0.0635 and 0.09619 and 0.03724 and 0.04497; at human CatK (inhibitor 37.500 nM, 0.0375 µM) it was 0.05483 and -0.02967 and 0.05665 and 0.01671; at human CatV (inhibitor 0.010 nM, 10 pM), 1.0857 and 1.077 and 0.9774 and 0.8982 and 0.991 and 0.8512 and 1.1 and 0.8679; at human CatV (inhibitor 0.018 nM, 18 pM), 1.336 and 1.266 and 0.9662 and 0.9302 and 1.04 and 0.8965 and 1.124 and 0.9597; at human CatV (inhibitor 0.032 nM, 32 pM) it was 1.039 and 0.8981 and 0.9517 and 0.9088 and 1.019 and 0.9688 and 1.292 and 0.8604. Moreover, the “Residual activity (Vi/V0)” value at human CatV (inhibitor 0.058 nM, 58 pM) is 0.6518 and 0.5159 and 0.8896 and 0.8461 and 0.9826 and 0.9436 and 1.221 and 0.8427; on human CatV (setting [1]) it was 0.9622 and 0.7389 and 0.9442 and 0.8081 and 0.8801 and 0.8142 and 1.285 and 0.7581; on human CatV (setting [2]) it was 0.6972 and 0.4428 and 0.8137 and 0.7094 and 0.8934 and 0.7434 and 1.066 and 0.6389; at human CatV (inhibitor 0.340 nM, 0.00034 µM), 0.6247 and 0.3497 and 0.4956 and 0.4527 and 0.4873 and 0.5939 and 0.9738 and 0.4752; at human CatV (setting [3]), 0.3307 and 0.2457 and 0.4411 and 0.4505 and 0.4917 and 0.4681 and 0.5327 and 0.3674; on human CatV (setting [4]) it was 0.3031 and 0.1765 and 0.2948 and 0.2868 and 0.2798 and 0.3141 and 0.3564 and 0.2414. The “Residual activity (Vi/V0)” value at CatL (setting [2]) was 0.8855 and 0.7968 and 0.4672 and 0.774 and 0.5436 and 0.6444 and 0.6384 and 0.5984 and 0.8706 and 0.7685; at CatL (inhibitor 0.340 nM, 0.00034 µM), 0.6489 and 0.6117 and 0.2724 and 0.4771 and 0.3326 and 0.4189 and 0.397 and 0.4003 and 0.6575 and 0.5962; at CatL (setting [3]) it was 0.6544 and 0.4591 and 0.279 and 0.4155 and 0.2277 and 0.7268 and 0.6794 and 0.7031 and 0.6487 and 0.6608; at CatL (setting [4]), 0.448 and 0.2903 and 0.222 and 0.2673 and 0.2098 and 0.5439 and 0.5159 and 0.5223 and 0.4578 and 0.481; at CatL (setting [5]), 0.2589 and 0.1857 and 0.1649 and 0.2093 and 0.1658 and 0.3522 and 0.3323 and 0.3518 and 0.2487 and 0.2662; on CatL (setting [6]), 0.2062 and 0.1428 and 0.1169 and 0.1623 and 0.08981 and 0.207 and 0.1929 and 0.2019 and 0.196 and 0.2135. For the same compound, the “Residual activity (Vi/V0)” value is 0.139 and 0.09925 and 0.07105 and 0.118 and 0.08137 and 0.1289 and 0.127 and 0.1302 and 0.1295 and 0.1384 at CatL (inhibitor 6.430 nM, 0.00643 µM); 0.09523 and 0.05909 and 0.04564 and 0.05812 and 0.04092 and 0.07914 and 0.07029 and 0.07354 and 0.08822 and 0.09606 on CatL (setting [7]); 0.05198 and 0.03378 and 0.02298 and 0.02931 and 0.02488 and 0.02998 and 0.02815 and 0.0288 and 0.05176 and 0.05151 at CatL (setting [8]); 0.02351 and 0.02002 and 0.01036 (2×) and 0.01453 and 0.0114 and 0.01064 and 0.01075 and 0.02418 and 0.02491 at CatL (inhibitor 37.500 nM, 0.0375 µM).
As to `CC(C)C[C@H](NC(=O)OCc1ccccc1)C(=O)N[C@@H](CC1CCNC1=O)C(O)S(=O)(=O)O` (stereo partly drawn) [GC-376, reference compound], the EC50 (commonly the midpoint of the concentration-response curve) in the assay with SARS-CoV-2-GFP worked out at 1070 ± 278 nM. At CatL (mean with standard deviation and 95% confidence interval, pH 5.5, 37 °C), the affinity corresponds to a Ki of 0.259 nM.
